# Measured values reported in patent US12252475B2, “Crystal forms of immunomodulators” (Curis, Inc., priority 2017, dated 2025).
# Like-named read-outs stand apart in the source and are kept apart here.
# Columns and labels:
# Format in all cases: physicochemical
# [1] = Solid stability of anhydrous crystal Form A on storage (XRPD form, TGA, HPLC purity); details: for HPLC Purity (area %): solid
# Experimental: (§1) Purity analysis was performed on an Agilent HP1100 series system equipped with a diode array detector and using ChemStation software vB.04.03 using the method detailed below in Table 3.
# Thermogravimetric analysis (TGA) data were collected using a TA Q500/Q5000 TGA from TA Instruments. Differential scanning calorimetry (DSC) was performed using a TA Q200/Q2000 DSC from TA Instruments.
# About 40 mg of a sample of formula (I) Form A was kept at each corresponding condition for one month without significant changes. […] No significant effect of the shoulder peaks on form or HPLC purity was observed.
# Samples of formula (I) anhydrous crystalline Form A were stored as solids at 25° C./60% RH, 30° C./˜56%, and 40° C./75% RH for the time periods listed below. The samples were prepared in duplicate with an offset of 2 weeks. Each replicate was stored in a different container.
# [2] = Dynamic vapor sorption (DVS)
# [3] = Solubility in simulated gastric fluid and pH-adjusted water at room temperature; details: thermodynamic from solid
# Text: The pH values of the aqueous solutions after the solubility test were 5.13 and 5.15, respectively.
# [4] = Solution stability of Form A in water/organic solvent mixtures (HPLC purity); details: for HPLC purity, API (RRT 1.00): about 10 mg/mL; for chemical purity in solution: time 0, across water/organic solvent mixtures
# Experimental: as §1
# Samples of formula (I) anhydrous crystalline Form A were stored as solutions in water mixed with acetonitrile, tetrahydrofuran, isopropyl alcohol, or ethanol at room temperature and 35° C. for 7-8 days. The sample concentration was about 10 mg/mL and was kept stirring.
# [5] = Equilibrium solubility in water; details: for Final Form / solubility at 6 h: Water; for Final Form: solids checked by XRPD; for solubility at 6 h: thermodynamic from solid, equilibrated 6 hrs, HPLC
# Experimental: Equilibrium solubility of formula (I) anhydrous Form A was measured in the water at 20° C. and 30° C. All samples were equilibrated at temperature for 6 hrs, and the solubility of supernatant was measured by HPLC, while the solids were checked by XRPD. (See Table 10.)
# [6] = Seed (after ground), 5° C., sealed
compound,measurement,setting,value
CC(O)[C@H](NC(=O)N[C@@H](CC(N)=O)c1nc([C@@H](N)CO)no1)C(=O)O (stereo in doubt) [Form A],Final Form,"[1]; 25° C., 60% RH, 1 month",Form A
same,TGA (%),"[1]; 25° C., 60% RH, 1 month",0.60%
same,Final Form,"[1]; 25° C., 60% RH, 3 months",Form A
same,TGA (%),"[1]; 25° C., 60% RH, 3 months",2.8%
same,Final Form,"[1]; 40° C., 75% RH, 1 month",Form A
same,TGA (%),"[1]; 40° C., 75% RH, 1 month",1.0%
same,Final Form,"[1]; 40° C., 75% RH, 3 months",Form A
same,TGA (%),"[1]; 40° C., 75% RH, 3 months",1.9%
same,Final Form,"[1]; 60° C., sealed, 1 month",Form A
same,TGA (%),"[1]; 60° C., sealed, 1 month",0.6%
same,Final Form,"[1]; 60° C., sealed, 3 months",Form A
same,TGA (%),"[1]; 60° C., sealed, 3 months",2.1%
same,Final Form,[1]; Initial,Form A
same,TGA (%),[1]; Initial,0.40%
same,Final Form,[1]; [6],Form A
same,TGA (%),[1]; [6],0.4%
same,solid form and particle morphology after storage,"[1]; one month and three months at 25° C./60% RH, 40° C./75% RH, and 60° C.",remained unchanged
same,degradation (chemical purity of solid sample) after storage,"[1]; solid sample of about 40 mg, storage for one month",no significant degradation was observed
same,HPLC Purity (area %),"[1]; 25° C., 60% RH, 1 month",99.83 area %
same,HPLC Purity (area %),"[1]; 25° C., 60% RH, 3 months",99.80 area %
same,HPLC Purity (area %),"[1]; 40° C., 75% RH, 1 month",99.81 area %
same,HPLC Purity (area %),"[1]; 40° C., 75% RH, 3 months",99.79 area %
same,HPLC Purity (area %),"[1]; 60° C., sealed, 1 month",99.85 area %
same,HPLC Purity (area %),"[1]; 60° C., sealed, 3 months",99.74 area %
same,HPLC Purity (area %),[1]; Initial,99.86 area %
same,hygroscopicity,"[2]; DVS, up to 80% RH",slightly hygroscopic
same,form change during DVS testing,"[2]; XRPD before and after DVS, FIG. 11",No form change was observed
same,mass change in DVS,[2]; up to 80% RH,about 0.66%
same,solubility,"[3]; simulated gastric fluid (SGF), simulated gastric fluid, read-out: solubility in simulated gastric fluid (SGF)",> 114 mg/mL
same,solubility,"[3]; water with pH adjusted by NaOH and HCl, aqueous buffer, pH 7.08 (pH 5.13 after test), read-out: solubility in water solution with pH adjusted by NaOH and HCl",87.5 to 117 mg/mL
same,solubility,"[3]; water with pH adjusted by NaOH and HCl, aqueous buffer, pH 9.14 (pH 5.15 after test), read-out: solubility in water solution with pH adjusted by NaOH and HCl",83.5 to 111 mg/mL
same,"HPLC purity, API (RRT 1.00)","[4]; 35° C., ACN/H2O (1:1, v/v), 0 h",99.58%
same,"HPLC purity, API (RRT 1.00)","[4]; 35° C., ACN/H2O (1:1, v/v), 4 h",99.44%
same,"HPLC purity, API (RRT 1.00)","[4]; 35° C., ACN/H2O (1:1, v/v), 24 h",98.42%
same,"HPLC purity, API (RRT 1.00)","[4]; 35° C., EtOH/H2O (1:1, v/v), 0 h",99.58%
same,"HPLC purity, API (RRT 1.00)","[4]; 35° C., EtOH/H2O (1:1, v/v), 4 h",99.47%
same,"HPLC purity, API (RRT 1.00)","[4]; 35° C., EtOH/H2O (1:1, v/v), 24 h",99.11%
same,"HPLC purity, API (RRT 1.00)","[4]; 35° C., IPA/H2O (1:2, v/v), 0 h",99.57%
same,"HPLC purity, API (RRT 1.00)","[4]; 35° C., IPA/H2O (1:2, v/v), 4 h",99.35%
same,"HPLC purity, API (RRT 1.00)","[4]; 35° C., IPA/H2O (1:2, v/v), 24 h",99.21%
same,"HPLC purity, API (RRT 1.00)","[4]; 35° C., THF/H2O (1:1, v/v), 0 h",99.56%
same,"HPLC purity, API (RRT 1.00)","[4]; 35° C., THF/H2O (1:1, v/v), 4 h",99.37%
same,"HPLC purity, API (RRT 1.00)","[4]; 35° C., THF/H2O (1:1, v/v), 24 h",98.30%
same,chemical purity in solution,[4]; 35° C.,about 99.6%
same,"HPLC purity, API (RRT 1.00)","[4]; RT, ACN/H2O (1:1, v/v), 0 h",99.65%
same,"HPLC purity, API (RRT 1.00)","[4]; RT, ACN/H2O (1:1, v/v), 4 h",99.51%
same,"HPLC purity, API (RRT 1.00)","[4]; RT, ACN/H2O (1:1, v/v), 24 h",99.24%
same,"HPLC purity, API (RRT 1.00)","[4]; RT, EtOH/H2O (1:1, v/v), 0 h",99.58%
same,"HPLC purity, API (RRT 1.00)","[4]; RT, EtOH/H2O (1:1, v/v), 4 h",99.47%
same,"HPLC purity, API (RRT 1.00)","[4]; RT, EtOH/H2O (1:1, v/v), 24 h",99.11%
same,"HPLC purity, API (RRT 1.00)","[4]; RT, IPA/H2O (1:2, v/v), 0 h",99.59%
same,"HPLC purity, API (RRT 1.00)","[4]; RT, IPA/H2O (1:2, v/v), 4 h",99.52%
same,"HPLC purity, API (RRT 1.00)","[4]; RT, IPA/H2O (1:2, v/v), 24 h",99.21%
same,"HPLC purity, API (RRT 1.00)","[4]; RT, THF/H2O (1:1, v/v), 0 h",99.64%
same,"HPLC purity, API (RRT 1.00)","[4]; RT, THF/H2O (1:1, v/v), 4 h",99.47%
same,"HPLC purity, API (RRT 1.00)","[4]; RT, THF/H2O (1:1, v/v), 24 h",99.19%
same,chemical purity in solution,[4]; room temperature,about 99.6%
same,Final Form,[5]; 20° C.,Form A
same,Final Form,[5]; 30° C.,Form A
same,form change during solubility testing,"[5]; XRPD, FIG. 9",No form change was observed
same,solubility at 6 h,[5]; 20° C.,125 mg/mL
same,solubility at 6 h,[5]; 30° C.,137 mg/mL
